As usually defined, the IC50 is the concentration that inhibits the measured activity by half.

Experiment [1] concerns the target recombinant NS5BΔ21 HCV RdRp enzyme (genotype 1b, produced in-house) (UniProt P26663). Briefly: RdRp assay with ELISA, recombinant in-house enzyme. It counts as biochemical, hepatitis C virus. The following applies: read-out: Experimental IC50, Recombinant. The method, then:
(§1) An RNA-dependant RNA polymerase assay was performed in a 96-well round bottom polypropylene plates (Costar) with a 50 μl reaction volume containing 20 mM HEPES pH 7.2-7.5 (Gibco), 1 mM DTT (Sigma), 0.4 mM MnCl2 (Sigma), 70 nM RNA template-primer PolyA (Amersham)-Oligo dT(20) biotin labelled (Roche), 20 μM UTP (Roche), 5U RNasin (Promega), 50 mM NaCl (Ambion), 4 μM DIG-11-UTP (Roche), test compound at desired concentration, 5% DMSO and 50-80 ng NS5B (Replizyme(V, UK) or 200-500 ng of recombinant NS5BA21 HCV RdRp enzyme. After 1 hour incubation at 30° C, the reaction is stopped by the addition of 5 μl 0.5 M EDTA and the solution is transferred to a streptavidin coated 96 well plate (Roche). Standard ELISA detection using Anti DIG-POD antibody (Roche) and BM Blue substrate is applied before measuring Abs at 450 nm. An illustration of the assay can be found in FIG. 1.

For another experiment, the target named is T1, HCV RdRp (Hepatitis C virus genotype 1b, UniProt P26663).
T1 construct: The HCV encoded RNA-dependent RNA polymerase (HCV RdRp), also known as non-structural protein 5B (NS 5B)
Conditions: literature value; read-out: Published IC50; cited from earlier work.

The subject of experiment [2] is NS5B (Replizyme, UK), HCV genotype 1b Δ21 RdRp. The format is biochemical, hepatitis C virus. The method, then:
as §1

Experiment [3] has as its target T2, NS5B (Replizyme, UK), HCV genotype 1b Δ21 RdRp (UniProt P26663).
T2 construct: other: Replizyme enzyme
The format is biochemical, hepatitis C virus. The following applies: read-out: Experimental IC50, Replizyme; Replizyme enzyme. As to the method: as §1

T1 sequence (P26663 2420-3010): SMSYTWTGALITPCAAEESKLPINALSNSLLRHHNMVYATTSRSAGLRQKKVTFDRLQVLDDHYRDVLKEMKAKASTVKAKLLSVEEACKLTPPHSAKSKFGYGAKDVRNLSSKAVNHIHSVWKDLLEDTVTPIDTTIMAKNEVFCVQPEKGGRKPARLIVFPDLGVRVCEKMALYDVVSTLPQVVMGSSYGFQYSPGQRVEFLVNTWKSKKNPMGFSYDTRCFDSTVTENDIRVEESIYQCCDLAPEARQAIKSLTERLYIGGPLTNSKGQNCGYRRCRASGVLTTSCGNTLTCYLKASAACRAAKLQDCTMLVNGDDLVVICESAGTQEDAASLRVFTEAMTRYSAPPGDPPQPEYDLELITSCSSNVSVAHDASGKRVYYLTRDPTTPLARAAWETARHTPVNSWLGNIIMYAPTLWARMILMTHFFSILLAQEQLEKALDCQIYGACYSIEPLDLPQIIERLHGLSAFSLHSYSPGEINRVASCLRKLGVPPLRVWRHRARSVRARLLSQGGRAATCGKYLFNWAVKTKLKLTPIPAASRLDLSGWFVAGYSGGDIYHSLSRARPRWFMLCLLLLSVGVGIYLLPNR

As to `O=C(O)c1ccc2c(c1)nc(-c1ccccn1)n2C1CCCCC1`, the IC50 in experiment [1] is 3500 nM; on HCV RdRp it was 4360 nM; in experiment [3] it was 69000 nM. For the same molecule, the “times less inhibition with the Replizyme enzyme than with the prepared enzyme” value in experiment [2] is listed as “about 20”.

With `O=C(O)COc1ccc2[nH]cc(C[C@H](NC(=O)c3ccc4c(c3)nc(-c3ccoc3)n4C3CCCCC3)C(=O)O)c2c1`, the IC50 is 60 nM in experiment [1], 1150 nM on HCV RdRp and 1300 nM in experiment [3]. The “times less inhibition with the Replizyme enzyme than with the prepared enzyme” value in experiment [2] was “about 20”.

Turning to `CCCCn1c(=O)c(C2=NS(=O)(=O)c3ccccc3N2)c(O)c2ccccc21`, the IC50 in experiment [1] is 1800 nM; on HCV RdRp it was 240 nM; in experiment [3], 1000 nM.

`CC(C)Cn1c(=O)c(C2=Nc3ccccc3S(=O)(=O)N2)c(O)c2ccccc21`: the concentration for half-maximal inhibition (IC50) was 2800 nM in experiment [1], 340 nM on HCV RdRp and 2300 nM in experiment [3].

Values taken from patent publication US20070021434A1, “NON-NUCLEOSIDE ANTI-HEPACIVIRUS AGENTS AND USES THEREOF” (Migenix Inc., priority 2005, published 2007).
